Measured values published in US8906357B2, “Treatment of multiple sclerosis with masitinib” (AB Science, priority 2010, dated 2014).
Values joined by “and” are separate entries in the source; they are usually repeats but may differ in a detail not shown here. Equal entries are not always repeated. “Also recorded” adds a separate entry of the source. Where two headings read alike, the source gives them in different places.

Tests used:
human cord blood MCs = settings: cited from earlier work
[1] = tested on: wild-type and juxtamembrane-mutated c-Kit receptors; settings: results in cell cycle arrest and apoptosis of c-Kit dependent cell lines; cited from earlier work
[2] = tested on: patients with RRMS or rSPMS
Method: A multicenter, open-label, non-controlled, proof-of-concept clinical trial, designed to evaluate the efficacy and safety of oral masitinib administered at 3 or 6 mg/kg/day for 36 weeks in patients with RRMS or rSPMS.
Eligible patients should have had at least one active gadolinium lesion at any of the three MRI performed during an 8 week run-in period and an EDSS score within the range of 2.0 to 6.5 inclusive.

[3] = tested on: patients with PPMS or rfSPMS;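 also: oral masitinib started at 3 or 6 mg/kg/day split twice daily, with up to two 1.5 mg/kg/day increases permitted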
Method: Patients were randomized to receive orally administered masitinib at an initial dose of 3 or 6 mg/kg/day b.i.d, with two dose increases of 1.5 mg/kg/day permitted in the event of lack of activity and manageable toxicity. Masitinib and placebo were supplied as 100 or 200 mg tablets. The initial study had three arms but this was amended to close the 3 mg/kg/day bid arm after approximately 1 year.
MS evaluations were performed at screening, at week 0 (baseline), at month 1, 2, 3, 6, 9, 12, 18 and 24 or at the withdrawal visit. […] Masitinib tolerance was assessed by clinical and biological safety parameters.
Patients having SPMS with relapse in the 2 years before inclusion were excluded. No oral or parenteral concomitant corticosteroids were permitted for the duration of study, except in case of protocol-defined demyelinating event (methylprednisolone at 1 g/day for 3 days). No immunomodulating, immunosuppressing, chemotherapy and paracetamol concomitant administration were permitted for the duration of the study. Concomitant analgesic without anti-inflammatory action and oral narcotic analgesic were not allowed on the day of a study visit until all efficacy evaluations were completed. Concomitant physical therapy was allowed in patients already receiving such therapy at study entry. To manage rash, a mandatory concomitant treatment (cetirizine, 10 mg/day for 30 days) was combined with masitinib.
The latter is a multidimensional, MS-specific outcome measure, comprising of a timed 25-foot walk (T25FW) test measuring leg function and ambulation, a 9-hole peg test (9-HPT) measuring arm and hand function and a Paced Auditory Serial Addition Test 3 seconds (PASAT-3″) measuring cognitive function. The MSFC was calculated as described in the National Multiple Sclerosis Society MSFC administration and scoring manual by averaging the z-scores from each components of the MSFC.
Adverse events (AE) were described by duration, intensity, relation to masitinib and course of action. Intensities were graded either mild (signs and symptoms are present without functional repercussions), moderate (there are functional repercussions without putting the patient's health at risk), or severe (functional alterations or incapacity or definite risk for the patient health).

mouse EAE model of MS = assay: Mouse EAE model of MS (MOG-induced disease in C57BL/6 mice), daily clinical score; type: in vivo; settings: days 26-35
Method: The ability and effect of masitinib in the inhibition of MC function in MS was explored using the EAE murine model. The myelin oligodendrocyte glycoprotein (MOG)-induced disease in C57BL/6 mice is considered to be a model for all progressive foinis of MS. C57BL/6 mice were immunized with 300 ng MOG35-55 peptide (an immunological target in the human disease) on days 0 (in complete Freund's adjuvant) and 7 (in incomplete Freund's adjuvant) and 250 ng pertussis was administered intravenously on days 0 and 2. Mice were scored daily by visual assessment of symptoms on a scale of 0-5 where 1 denotes a flaccid tail, 2 denotes hind limb weakness, 3 denotes hind limb paralysis, 4 denotes an inability to right from supine and 5 indicates death. Statistical analyzes of significance between mean clinical scores were performed using Bonferroni's Multiple Comparison Test-One way ANOVA or paired t tests. Statistical analyses were performed for the daily intervals between days 26-35. Five mice per experimental group were administrated the following treatment every day from the first day of immunization (day 0): • Vehicle (PBS) • Masitinib 25 mg/kg, 2 times per day, intraperitoneal injection • Masitinib 12.5 mg/kg, 2 times per day, intraperitoneal injection

[4] = during the treatment period (W0 to W36)

SMILES: Cc1ccc(NC(=O)c2ccc(CN3CCN(C)CC3)cc2)cc1Nc1nc(-c2cccnc2)cs1 [masitinib, 4-(4-methylpiperazin-1-ylmethyl)-N-[4-methyl-3-(4-pyridin-3ylthiazol-2-ylamino)phenyl]benzamide]
- FcER1-mediated degranulation (human cord blood MCs): inhibition
- inhibitory effect on c-Kit receptors [1]: strong inhibitory effect
- tolerability overall ([2]; 3 or 6 mg/kg/day oral): relatively well tolerated
- EDSS ([2]; 36-week study): neither improvement nor progression
- average number of T1 lesions ([2]; after 12 weeks of treatment (run-in period 5.35), 4 patients): 1.5 lesions
- average volume of T1 lesions ([2]; after 12 weeks of treatment (run-in period 777 mm^3)): 54 mm^3
- average number of T1 lesions ([2]; after 20 weeks of treatment (run-in period 5.35), 4 patients): 0.25 lesions
- average volume of T1 lesions ([2]; after 20 weeks of treatment (run-in period 777 mm^3)): 40 mm^3
- T1 gadolinium-enhancing lesion number ([2]; all patients, at consecutive time points during the study): reduced to none
- patients in whom both number and volume of T1 lesions decreased ([2]; during masitinib treatment): 3/4
- average number of T1 lesions [2, 4]: 1.0 lesion
- average volume of T1 lesions [2, 4]: 99 mm^3
- number and volume of T2 hyperintense lesions and T1 hyperintense lesions ([2]; during treatment): remained globally stable
- death ([2]; human, in vivo): No death
- total AEs reported during the treatment period ([2]; in two patients, all at doses of ≧6 mg/kg/day): 11
- patients experiencing relapses during treatment ([2]; one patient out of four, three relapses): 25%
- EDSS score maintained ([2]; patient in the study extension phase, to W84): 2.5
- relapse-free duration of individual patients ([2]; three patients, respectively): 7 months and 11.5 months and 25 months
- MSFC mean percentage change from baseline ([3]; All (masitinib n = 24), M3, LOCF): 78%
- MSFC mean percentage change from baseline ([3]; All (masitinib n = 24), M3, LOCF, listed as Masitinib): 78 ± 284%
- MSFC mean percentage change from baseline ([3]; All (masitinib n = 24), M6, LOCF): 156 ± 274%
- MSFC mean percentage change from baseline ([3]; All (masitinib n = 24), M9, LOCF): 70 ± 267%
- MSFC mean percentage change from baseline ([3]; All (masitinib n = 24), M12, LOCF): 103 ± 189%
- MSFC mean percentage change from baseline ([3]; All (masitinib n = 24), M18, LOCF): +96%
- MSFC mean percentage change from baseline ([3]; All (masitinib n = 24), M18, LOCF, listed as Masitinib): 96 ± 191%
- MSFC mean percentage change from baseline ([3]; PPMS (masitinib n = 9), M3, LOCF): +108%
- MSFC mean percentage change from baseline ([3]; PPMS (masitinib n = 9), M3, LOCF, listed as Masitinib): 108 ± 435%
- MSFC mean percentage change from baseline ([3]; PPMS (masitinib n = 9), M6, LOCF): 202 ± 353%
- MSFC mean percentage change from baseline ([3]; PPMS (masitinib n = 9), M9, LOCF): 56 ± 410%
- MSFC mean percentage change from baseline ([3]; PPMS (masitinib n = 9), M12, LOCF): 134 ± 268%
- MSFC mean percentage change from baseline ([3]; PPMS (masitinib n = 9), M18, LOCF): +134%
- MSFC mean percentage change from baseline ([3]; PPMS (masitinib n = 9), M18, LOCF, listed as Masitinib): 134 ± 268%
- EDSS score course ([3]; PPMS population): stable
- Mean 9-HPT raw score change ([3]; at month 18): -1.6 s
- Mean PASAT-3″ raw score change ([3]; at month 18): +6.0
- Mean T25FW raw score change ([3]; at month 18): +1.6 seconds
- death ([3]; during the study): No death
- MSQLI subscale SSS, mean percentage change from baseline ([3]; ex-post, n = 4): −6.9 ± 29.0%
- MSQLI subscale VIS, mean percentage change from baseline ([3]; ex-post, n = 4): 0 ± 0%
- MSQLI subscale SF-36, mean percentage change from baseline ([3]; ex-post, n = 5): 12.7 ± 24.3%
- MSQLI subscale PDQ, mean percentage change from baseline ([3]; ex-post, n = 6): 1.1 ± 11.7%
- MSQLI subscale BoCS, mean percentage change from baseline ([3]; ex-post, n = 7): −3.1 ± 8.8%
- MSQLI subscale MSSS, mean percentage change from baseline ([3]; ex-post, n = 7): 6.2 ± 9.4%
- MSQLI subscale PES, mean percentage change from baseline ([3]; ex-post, n = 7): −3.9 ± 12.2%
- MSQLI subscale BLCS, mean percentage change from baseline ([3]; ex-post, n = 8): 21.5 ± 72.4%
- MSQLI subscale MFIS, mean percentage change from baseline ([3]; ex-post, n = 8): −3.0 ± 14.9%
- MSQLI subscale MHI, mean percentage change from baseline ([3]; ex-post, n = 9): 15.2 ± 25.99%
- number of AEs reported by investigators ([3]; masitinib group n = 27): 100
- patients reporting AEs (adverse events) ([3]; masitinib group n = 27): 85%
- patients reporting a serious, non-fatal AE ([3]; masitinib group n = 27): 33%
- patients reporting a severe AE suspected to be related to therapy ([3]; masitinib group n = 27): 26%
- patients with an AE leading to masitinib discontinuation ([3]; masitinib group n = 27): 26%
- Asthenia, number of patients ([3]; masitinib n = 27): 11
- Asthenia, percent of patients ([3]; masitinib n = 27): 41%
- Diarrhea, number of patients ([3]; masitinib n = 27): 3
- Diarrhea, percent of patients ([3]; masitinib n = 27): 11%
- Nausea, number of patients ([3]; masitinib n = 27): 7
- Nausea, percent of patients ([3]; masitinib n = 27): 26%
- Rash, number of patients ([3]; masitinib n = 27): 3
- Rash, percent of patients ([3]; masitinib n = 27): 11%
- Urinary Tract Infection, number of patients ([3]; masitinib n = 27): 3
- Urinary Tract Infection, percent of patients ([3]; masitinib n = 27): 11%
- Weight Decreased, number of patients ([3]; masitinib n = 27): 3
- Weight Decreased, percent of patients ([3]; masitinib n = 27): 11%
- effect on MSQLI subscales (SF-36, MFIS, PES, PDQ, MHI, MSSS) ([3]; over the course of treatment): improved
- mean change in EDSS ([3]; overall, over 18 months): < 0.5
- MSFC mean percentage change from baseline ([3]; rfSPMS (masitinib n = 15), M3, LOCF): +60%
- MSFC mean percentage change from baseline ([3]; rfSPMS (masitinib n = 15), M3, LOCF, listed as Masitinib): 60 ± 152%
- MSFC mean percentage change from baseline ([3]; rfSPMS (masitinib n = 15), M6, LOCF): 129 ± 223%
- MSFC mean percentage change from baseline ([3]; rfSPMS (masitinib n = 15), M9, LOCF): 78 ± 146%
- MSFC mean percentage change from baseline ([3]; rfSPMS (masitinib n = 15), M12, LOCF): 84 ± 130%
- MSFC mean percentage change from baseline ([3]; rfSPMS (masitinib n = 15), M18, LOCF): +73%
- MSFC mean percentage change from baseline ([3]; rfSPMS (masitinib n = 15), M18, LOCF, listed as Masitinib): 73 ± 131%
- EDSS score course ([3]; rfSPMS population): remained stable
- brain volume (MS-related imaging) ([3]; throughout the study, masitinib group): two patients experienced a brain volume increase
- p value, mean clinical score, vehicle versus masitinib 12.5 mg/kg (mouse EAE model of MS; 12.5 mg/kg 2 times per day intraperitoneal): p < 0.001
- p value, mean clinical score, vehicle versus masitinib 25 mg/kg (mouse EAE model of MS; 25 mg/kg 2 times per day intraperitoneal): p < 0.001
- p value, mean clinical score, masitinib 25 mg/kg versus masitinib 12.5 mg/kg (mouse EAE model of MS; 2 times per day intraperitoneal): p < 0.001
- mean clinical score relative to vehicle (mouse EAE model of MS; both doses (25 and 12.5 mg/kg 2 times per day i.p.)): significant differences in mean clinical score; also recorded: significant reduction in disease
